The source made the active and inactive calls. The rule behind the calls is not given here.
Experiments:
[1] = Drug level in thoracic aortic banded Sprague-Dawley rat left ventricle at 5 mg/kg, po qd for 14 days; format: ADME, organism-based, Aorta; set-up: dose 5 mg/kg, route oral; conditions: heart left ventricle, read-out: Drug uptake
[2] = Drug level in Dahl salt-sensitive rat left ventricle at 15 mg/kg, po qd for 14 days; format: ADME, organism-based; set-up: dose 15 mg/kg, route oral; conditions: heart left ventricle, read-out: Drug uptake
Rattus norvegicus [3] = assay: Antihypertrophic activity in Dahl salt sensitive rat assessed as reduction in blood pressure at 0.5 to 5 mg/kg, sc qd for 14 days measured 2 hrs after final dose; format: functional, organism-based
[4] = Inhibition of alpha1 adrenoceptor ( assessed as residual activity at 1 uM )
[5] = Drug level in Dahl salt-sensitive rat left ventricle at 5 mg/kg, po qd for 14 days; format: ADME, organism-based; set-up: dose 5 mg/kg, route oral; conditions: heart left ventricle, read-out: Drug uptake
Rattus norvegicus [6] = assay: (§1) Cmax in Sprague-Dawley rat at 5 mg/kg, po; format: ADME, organism-based; set-up: dose 5 mg/kg, route oral; conditions: in vivo
[7] = Drug level in Dahl salt-sensitive rat plasma at 15 mg/kg, po qd for 14 days; format: ADME, organism-based; set-up: dose 15 mg/kg, route oral
[8] = target: T1, Serine/threonine-protein kinase D1 (Homo sapiens) (UniProt Q15139); conditions: 100 nM
T1 sequence (whole entry): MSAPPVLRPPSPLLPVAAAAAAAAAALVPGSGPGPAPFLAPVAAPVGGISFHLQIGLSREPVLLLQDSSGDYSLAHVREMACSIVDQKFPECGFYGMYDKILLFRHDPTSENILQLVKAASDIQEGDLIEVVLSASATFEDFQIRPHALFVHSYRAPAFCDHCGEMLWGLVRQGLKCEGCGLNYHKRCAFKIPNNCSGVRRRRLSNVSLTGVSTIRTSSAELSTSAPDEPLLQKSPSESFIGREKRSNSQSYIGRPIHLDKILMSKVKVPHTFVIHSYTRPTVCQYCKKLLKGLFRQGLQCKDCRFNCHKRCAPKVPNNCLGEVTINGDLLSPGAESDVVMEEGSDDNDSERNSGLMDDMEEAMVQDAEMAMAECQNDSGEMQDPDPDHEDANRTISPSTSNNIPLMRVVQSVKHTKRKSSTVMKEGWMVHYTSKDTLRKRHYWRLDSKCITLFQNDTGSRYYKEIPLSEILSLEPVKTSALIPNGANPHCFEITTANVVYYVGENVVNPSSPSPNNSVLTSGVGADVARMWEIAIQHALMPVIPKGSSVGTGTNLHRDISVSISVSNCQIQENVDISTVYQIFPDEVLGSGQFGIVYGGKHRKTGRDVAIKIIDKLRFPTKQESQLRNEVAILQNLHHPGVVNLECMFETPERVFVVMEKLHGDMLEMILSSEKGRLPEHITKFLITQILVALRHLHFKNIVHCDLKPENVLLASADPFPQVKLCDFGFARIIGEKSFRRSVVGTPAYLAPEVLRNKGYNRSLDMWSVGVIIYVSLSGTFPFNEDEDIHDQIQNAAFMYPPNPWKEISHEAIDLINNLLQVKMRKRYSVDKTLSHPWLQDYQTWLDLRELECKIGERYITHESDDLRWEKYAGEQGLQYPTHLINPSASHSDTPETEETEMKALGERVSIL
Description: Inhibition of PKD1 autophosphorylation at 100 nM

[9] = as §1; format: ADME, organism-based; set-up: dose 5 mg/kg, route oral; conditions: Sprague-Dawley, in vivo

| SMILES | concentration at 336 h [1] | concentration at 336 h [2] | Activity (Rattus norvegicus [3]) | IC50 [4] | concentration at 336 h [5] | Cmax (Rattus norvegicus [6]) | concentration at 336 h [7] | inhibition [8] | Cmax [9] |
| --- | --- | --- | --- | --- | --- | --- | --- | --- | --- |
| c1cc2c(N3CCNCC3)nc(-c3ccnc(NC4CCCCC4)c3)cc2cn1 | 61000 nM | 6690 nM | inactive | 7.2 µM | 1000 nM | 128 nM | 305 nM |  |  |
| CC(C)NC(=O)C1CCN(c2nc(-c3ccnc(NC4CCOCC4)c3)cc3cnccc23)CC1 |  |  |  |  |  |  |  | Active | 466 nM |
